Experimental data: patent US11236108B2, “Functionalized heterocycles as antiviral agents” (ENANTA PHARMACEUTICALS, INC., priority 2019, dated 2022)

Tests used:
hepatitis B virus (HBV) = test: Reduction of viral product accumulation (HBV DNA qPCR, HBsAg or HBeAg ELISA) in 2.2.15 cells; assay type: cell-based; conditions: 120 h, day 5 post treatment, 50% reduction of viral product accumulation in cell lysates or supernatants relative to no drug controls, readout not specified
Protocol: 2.2.15 cells are passaged upon attaining confluency in DMEM/F12 media in the presence of 10% FBS, Penn/Strep, and 250 ug/mL G418. Novel compounds are 5 fold serially diluted in DMSO and added to 96 well plates containing 35,000 cells/well at a 1:200 dilution so that the final concentration of DMSO is 0.5%. On day 5, post treatment cell lysates and supernatants are harvested for analysis.
Cells are lysed using Agilent Sidestep Lysis buffer, diluted 1:100 and quantified via quantitative real time PCR. Commercially available ELISA kits are used to quantitate the viral proteins HBsAg (Alpco) or HBeAg (US Biological) by following the manufacturer's recommended protocol after diluting samples to match the linear range of their respective assays. Irrespective of readout, compound concentrations that reduce viral product accumulation in the cell lysates or supernatants by 50% relative to no drug controls (EC50) are reported; EC50 ranges are as follows: A<0.1 μM; B 0.1-1 μM; C>1 μM.

[1] = Compound induced cellular toxicity in HepG2 cells (ATPlite 1 Step); assay type: cell-based; conditions: human, three days exposure, 50% reduction of total ATP levels relative to no drug controls
Protocol: At day 3, post seeding cells are treated with ATPlite 1 Step according to the manufacturer's instructions.

Structure (SMILES)	EC50 (hepatitis B virus (HBV)) [µM]	CC50 at 3 days [1] [µM]
CC(C)(C)[C@@H]1Oc2c(cc(Br)c3occc23)-c2c1cc(C(=O)O)c(=O)n2C1CC1 [Example 1, (S)-11-bromo-5-(tert-butyl)-9-cyclopropyl-8-oxo-8,9-dihydro-5H-furo[2′,3′:7,8]chromeno[4,3-b]pyridine-7-carboxylic acid]	< 0.1	> 25
CC(C)(C)[C@@H]1Oc2c(cc(Cl)c3occc23)-c2c1cc(C(=O)O)c(=O)n2C1CC1 [Example 2, (S)-5-(tert-butyl)-11-chloro-9-cyclopropyl-8-oxo-8,9-dihydro-5H-furo[2′,3′:7,8]chromeno[4,3-b]pyridine-7-carboxylic acid]	< 0.1	> 25
CC(C)(C)[C@@H]1Oc2c(cc(Cl)c3ccoc23)-c2c1cc(C(=O)O)c(=O)n2C1CC1 [Example 3, (S)-5-(tert-butyl)-11-chloro-9-cyclopropyl-8-oxo-8,9-dihydro-5H-furo[3′,2′:7,8]chromeno[4,3-b]pyridine-7-carboxylic acid]	< 0.1	> 25
CC(C)(C)[C@@H]1Oc2c(ccc3occc23)-c2c1cc(C(=O)O)c(=O)n2C1CC1 [Example 4, (S)-5-(tert-butyl)-9-cyclopropyl-8-oxo-8,9-dihydro-5H-furo[2′,3′:7,8]chromeno[4,3-b]pyridine-7-carboxylic acid]	< 0.1	> 25
CC(C)(C)[C@@H]1Oc2c(cc(O)c3occc23)-c2c1cc(C(=O)O)c(=O)n2C1CC1 [Example 5, (S)-5-(tert-butyl)-9-cyclopropyl-11-hydroxy-8-oxo-8,9-dihydro-5H-furo[2′,3′:7,8]chromeno[4,3-b]pyridine-7-carboxylic acid]	< 0.1	> 25
COc1cc2c(c3ccoc13)O[C@@H](C(C)(C)C)c1cc(C(=O)O)c(=O)n(C3CC3)c1-2 [Example 6, (S)-5-(tert-butyl)-9-cyclopropyl-11-methoxy-8-oxo-8,9-dihydro-5H-furo[2′,3′:7,8]chromeno[4,3-b]pyridine-7-carboxylic acid]	< 0.1	> 25
